The source of these data is patent US6271205A, “Cancer treatment by expression of differentiation factor receptor” (University of Massachusetts Medical Center, priority 1997, dated 2001).

This assay relates to C6 rat glioma cells. In words: Induction of cell cycle arrest in C6 cells with aphidicolin. Type of assay: cell-based. The following applies: 0.3 μM aphidicolin, 5 days. On the procedure:
SH-SY5Y cells were grown at 37° C. in RPMI 1640 medium (GIBCO BRL, Gaithersburg, Md.) supplemented with 10% fetal bovine serum (Sigma Chemicals, St. Louis, Mo.) and 100 μg/ml of gentamicin. For differentiation studies, cells were plated (1.5×10^5 to 5×10^5 cells/dish) in 35-mm Primaria dishes (Falcon, Franklin Lakes, N.J.). One hundred ng/ml NGF (2.5 S; Bioproducts for Science, Indianapolis, Ind.) and/or 0.3 μM aphidicolin (Sigma Chemicals, St. Louis, Mo.) were added every 2-3 days. Cell proliferation was assessed by BrdU labeling, as described by LoPresti et al. (Cell Growth Diff. (1992) 3:627-635).
0.3 μM aphidicolin (Sigma, St. Louis Mo.) was added to logarithmically growing C6 rat glioma cells (ATCC, CCL 107, Rockville, Md.) in MEM medium supplemented with 10% fetal bovine serum (Sigma, St. Louis, Mo.). After 5 days incubation, growth arrested cells were removed with trypsin and 2.0×10^4 cells were seeded on polyornithine coated coverslips (polyornithine hydrobromide, Sigma) containing aphidicolin supplemented media for another five days in 24-well plates. Coverslips were then fixed in either methanol (10 minutes at -20° C.) or 4% paraformaldehyde (20 minutes at room temperature) for immunohistochemical analysis.
Less than 5% of cells were stained to any extent with antibodies to GFAP, medium and heavy chain neurofilament (SMI-312) or MAP-2. […]

Regarding `C[C@@]1(CO)[C@H](O)CC[C@@]2(C)[C@H]1CC[C@H]1C[C@@H]3C[C@@]12CC[C@]3(O)CO` [aphidicolin], the “cells extending branched complex neurite-like processes” value turned out to be 48%. The “BrDU labeling (proliferation)” value (MEM + 10% FBS, untreated cells 52%) turned out to be 7.2%.
